Where a name gives a salt, the structure may show the parent alone.
These compounds were tested against T1, SMO (Mus musculus, UniProt P56726) (assay: Smoothened (SMO)/Sonic Hedgehog (SHh) Transient Transcriptional Activation Assay (Gli-luciferase reporter in C3H10T1/2 cells)). Settings: 2 uM test compound, SHh 250 ng/ml, 20 hrs.
T1 construct: endogenous in cells; host or cells: C3H10T1/2 (ATCC #CCL-226)
T1 sequence (P56726 33-793): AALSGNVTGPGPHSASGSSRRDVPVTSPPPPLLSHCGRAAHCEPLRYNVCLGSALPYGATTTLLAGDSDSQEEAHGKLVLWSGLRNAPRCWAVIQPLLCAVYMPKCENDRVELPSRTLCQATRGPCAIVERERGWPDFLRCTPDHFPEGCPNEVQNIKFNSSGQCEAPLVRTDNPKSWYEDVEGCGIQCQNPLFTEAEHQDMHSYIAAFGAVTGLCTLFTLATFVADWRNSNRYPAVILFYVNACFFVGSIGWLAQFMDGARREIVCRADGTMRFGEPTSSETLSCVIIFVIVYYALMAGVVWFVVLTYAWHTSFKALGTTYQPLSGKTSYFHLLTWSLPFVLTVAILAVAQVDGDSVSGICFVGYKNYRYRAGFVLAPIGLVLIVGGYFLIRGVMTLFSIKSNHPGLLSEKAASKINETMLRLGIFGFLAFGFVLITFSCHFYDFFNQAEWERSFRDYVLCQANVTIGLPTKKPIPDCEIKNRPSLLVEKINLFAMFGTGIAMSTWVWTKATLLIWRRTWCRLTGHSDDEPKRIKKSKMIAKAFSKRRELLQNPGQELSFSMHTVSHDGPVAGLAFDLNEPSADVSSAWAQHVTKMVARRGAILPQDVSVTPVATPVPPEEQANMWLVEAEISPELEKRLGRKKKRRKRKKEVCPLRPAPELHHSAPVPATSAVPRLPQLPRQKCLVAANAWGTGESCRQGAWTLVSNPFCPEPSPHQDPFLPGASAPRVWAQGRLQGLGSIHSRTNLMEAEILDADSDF
Type: cell-based, murine
Summary of the method: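 C3H10T1/2 cells transiently transfected with a 10× murine Gli-responsive firefly luciferase reporter plus pEGFP, serum-starved 20 h in 0.5% calf serum, then treated with compounds (2 uM–2 nM final) and 250 ng/ml recombinant human SHh for 20 h at 37 °C. Read-out: Dual-Glo luminescence.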
With `COc1cc(OC)cc(C(=O)NC2CCCC(c3nc4cc(C(=O)N(C)C)ccc4[nH]3)C2)c1` (single isomer, unassigned) [Example 8, 2-(3-(3,5-dimethoxybenzamido)cyclohexyl)-N,N-dimethyl-1H-benzo[d]imidazole-5-carboxamides (cis- and trans-isomers)] the “SMO % inhibition at 2 uM” value was 68%. For “N-(3-(6-((2-Methoxyethylamino)methyl)-1-methyl-1H-benzo[d]imidazol-2-yl)cyclohexyl)-2,3-dihydrobenzo[b][1,4]dioxine-6-carboxamide and N-(3-(5-((2-methoxyethylamino)methyl)-1-methyl-1H-benzo[d]imidazol-2-yl)cyclohexyl)-2,3-dihydrobenzo[b][1,4]dioxine-6-carboxamide [Example 38]”, the “SMO % inhibition at 2 uM” value was 103%. For “N-(3-(6-Isopropyl-1-methyl-1H-benzo[d]imidazol-2-yl)cyclohexyl)-2,3-dihydrobenzo[b][1,4]dioxine-6-carboxamide and N-(3-(5-isopropyl-1-methyl-1H-benzo[d]imidazol-2-yl)cyclohexyl)-2,3-dihydrobenzo[b][1,4]dioxine-6-carboxamide [Example 32]”, the “SMO % inhibition at 2 uM” value was 81%. For “N-(3-(5-Bromo-1-methyl-1H-benzo[d]imidazol-2-yl)cyclohexyl)-3,5-dimethoxybenzamide and N-(3-(6-bromo-1-methyl-1H-benzo[d]imidazol-2-yl)cyclohexyl)-3,5-dimethoxybenzamide [Example 18]”, the “SMO % inhibition at 2 uM” value was 107%.

Same assay, conditions: C3H 10T1/2, 2 uM test compound, SHh 250 ng/ml, 20 hrs, read-out: SMO % inhibition at 2 uM
For `COCCNc1ccc(C(=O)N[C@@H]2CCC[C@H](c3nc4ccccc4[nH]3)C2)cn1` [Example 41, N-((1R,3S)-3-(1H-Benzo-[d]imidazol-2-yl)cyclohexyl)-6-(2-methoxyethylamino)nicotinamide], the inhibition at 2 µM was 87%. Work on `CN(C(=O)c1ccc2c(c1)OCCO2)C1CCCC(c2nc3ccccc3n2C)C1` (stereo not shown) [Example 14, N-Methyl-N-(3-(1-methyl-1H-benzo[d]imidazol-2-yl)cyclohexyl)-2,3-dihydrobenzo[b][1,4]dioxine-6-carboxamide] yielded an inhibition at 2 µM of 95%. Compound `N#CCCn1c(C2CCCC(NC(=O)c3ccc4c(c3)OCCO4)C2)nc2ccccc21` (stereo not shown) [Example 15, N-(3-(1-(2-Cyanoethyl)-1H-benzo[d]imidazol-2-yl)cyclohexyl)-2,3-dihydrobenzo[b][1,4]dioxine-6-carboxamide] has an inhibition at 2 µM of 94%. `COc1cc(OC)cc(C(=O)NC2CCCC(c3nc4cc(C)ccc4n3C)C2)c1` (stereo not shown) [Example 27, N-(3-(1,5-Dimethyl-1H-benzo[d]imidazol-2-yl)cyclohexyl]-3,5-dimethoxybenzamide] showed an inhibition at 2 µM of 84%.

Same assay, conditions: C3H 10T1/2, 2 μM test compound, SHh 250 ng/ml, 20 hrs, read-out: SMO CELL % INHIBITION @ 2 μM
Work on `O=C(N[C@@H]1CCC[C@H](c2nc3ccccc3[nH]2)C1)c1ccc2c(c1)CCO2` [Example 198, N-[(1R,3S)-3-(1H-benzimidazol-2-yl)cyclohexyl]-2,3-dihydro-1-benzofuran-5-carboxamide triflouroacetate] yielded an inhibition at 2 µM of 85%. `O=C1CCc2cc(C(=O)NC3CCCC(c4nc5ccccc5[nH]4)C3)ccc2N1` (stereo not shown) [Example 137, N-[3-(1H-benzimidazol-2-yl)cyclohexyl]-2-oxo-1,2,3,4-tetrahydroquino-line-6-carboxamide triflouroacetate] showed an inhibition at 2 µM of 108%. `O=C(N[C@H]1CCC[C@@H](c2nc3cc(Br)ccc3[nH]2)C1)c1ccc2c(c1)OCCO2` [Example 150, N-[(1S,3R)-3-(5-bromo-1H-benzimidazol-2-yl)cyclohexyl]-2,3-dihydro-1,4-benzodioxine-6-carboxamide HCl] showed an inhibition at 2 µM of 45%. For `O=C(NC1CCCC(c2nc3ccc(Cl)cc3[nH]2)C1)c1ccc2c(c1)OCCO2` (stereo not shown) [Example 85, N-[3-(6-chloro-1H-benzimidazol-2-yl)cyclohexyl]-2,3-dihydro-1,4-benzodioxine-6-carboxamide HCl], the inhibition at 2 µM was 103%. `O=C(Cc1nc2cc(Cl)ccc2[nH]1)NC1CCCC(c2nc3ccccc3[nH]2)C1` (stereo not shown) [Example 144, N-[3-(1H-benzimidazol-2-yl)cyclohexyl]-2-(5-chloro-1H-benzimidazol-2-yl)acetamide HCl] showed an inhibition at 2 µM of 105%. `O=C(NC1CCCC(c2nc3ccccc3[nH]2)C1)C1CCCCC1` (stereo not shown) [Example 57, N-(3-(1H-benzo[d]imidazol-2-yl)cyclohexyl) cyclohexanecar-boxamide HCl] was tested, and the inhibition at 2 µM was 48%. For `O=C(NC1CCCC(c2nc3ccccc3[nH]2)C1)c1cc(-c2ccccn2)n[nH]1` (stereo not shown) [Example 153, N-[3-(1H-benzimidazol-2-yl)cyclohexyl]-3-pyridin-2-yl-1H-pyrazole-5-carboxamide triflouroacetate], the inhibition at 2 µM was 46%. With `O=C(N[C@@H]1CCC[C@H](c2nc3ccc(Cl)cc3[nH]2)C1)c1ccc2c(c1)OCCO2` [Example 178, N-[(1R,3S)-3-(6-chloro-1H-benzimidazol-2-yl)cyclohexyl]-2,3-dihydro-1,4-benzodioxine-6-carboxamide HCl] the inhibition at 2 µM was 110%. Work on `O=C(Nc1cc(F)cc2c1OCOC2)N[C@@H]1CCC[C@H](c2nc3ccccc3[nH]2)C1` [Example 230, 1-[(1R,3S)-3-(1H-benzimidazol-2-yl)cyclohexyl]-3-(6-fluoro-4H-1,3-benzodioxol-8-yl)urea] yielded an inhibition at 2 µM of 111%. In the case of `O=C1COc2ccc(C(=O)N[C@@H]3CCC[C@H](c4nc5ccccc5[nH]4)C3)cc2N1` [Example 173, N-[(1R,3S)-3-(1H-benzimidazol-2-yl)cyclohexyl]-3-oxo-3,4-dihydro-2H-1,4-benzoxazine-6-carboxamide HCl], the inhibition at 2 µM is reported as 97%. In the case of `[N-]=[N+]=Nc1c(F)c(F)c(C(=O)NC23CCCC(c4nc5cc(C(F)(F)F)ccc5[nH]4)(C2)C3)c(F)c1F` [Example 302, 4-azido-2,3,5,6-tetrafluoro-N-{5-[5-(trifluoromethyl)-1H-benzimidazol-2-yl]bicyclo[3.1.1]hept-1-yl}benzamide], the inhibition at 2 µM is reported as 97.1%. Work on `Cc1cn2cc(CCC(=O)NC3CCCC(c4nc5ccccc5[nH]4)C3)nc2s1` (stereo not shown) [Example 116, N-[3-(1H-benzimidazol-2-yl)cyclohexyl]-3-(2-methylimidazo[2,1-b][1,3]thiazol-6-yl)propanamide triflouroacetate] yielded an inhibition at 2 µM of 91%. In the case of `O=C(NC1CCCC(c2nc3ccccc3[nH]2)C1)c1cc(C2CC2)n[nH]1` (stereo not shown) [Example 114], the inhibition at 2 µM is reported as 109%. For `O=C(N[C@@H]1CCC[C@H](c2nc3ccccc3[nH]2)C1)c1ccc2c(n1)OCCO2` [Example 242, N-((1R,3S)-3-(1H-benzo[d]imidaz-ol-2-yl)cyclohexyl)-2,3-dihydro-[1,4]dioxino[2,3-b]pyridine-6-carboxamide], the inhibition at 2 µM was 86%. For `O=C(N[C@@H]1CCC[C@H](c2nc3ccccc3[nH]2)C1)c1ccc2snnc2c1` [Example 202, N-[(1R,3S)-3-(1H-benzimidazol-2-yl)cyclohexyl]-1,2,3-benzothiadiazole-5-carboxamide triflouroacetate], the inhibition at 2 µM was 34%. With `O=C(NC1CCCC(c2nc3ccccc3[nH]2)C1)c1ncc[nH]1` (stereo not shown) [Example 61, N-[3-(1H-benzimidazol-2-yl)cyclohexyl]-1H-imidazole-2-carboxamide HCl] the inhibition at 2 µM was 52%. `O=C(NC12CCCC(c3nc4ccccc4[nH]3)(C1)C2)c1ccc2c(c1)CCCO2` [Example 279, N-[5-(1H-benzimidazol-2-yl)bicyclo[3.1.1]hept-1-yl]chromane-6-carboxamide] was tested, and the inhibition at 2 µM was 92.6%. Compound `O=C(Cn1nc2ccccc2n1)NC1CCCC(c2nc3ccccc3[nH]2)C1` (stereo not shown) [Example 92, N-[3-(1H-benzimidazol-2-yl)cyclohexyl]-2-(2H-1,2,3-benzotriazol-2-yl)acetamide triflouroacetate] has an inhibition at 2 µM of 90%. `O=C(NC12CCCC(c3nc4cc(C(F)(F)F)ccc4[nH]3)(C1)C2)c1c(F)c(F)c(F)c(F)c1F` [Example 288, 2,3,4,5,6-pentafluoro-N-{5-[5-(trifluoromethyl)-1H-benzimidazol-2-yl]bicyclo[3.1.1]hept-1-yl}benzamide] was tested, and the inhibition at 2 µM was 93.3%. `O=C(Cn1ccc2sccc2c1=O)NC1CCCC(c2nc3ccccc3[nH]2)C1` (stereo not shown) [Example 127, N-[3-(1H-benzimidazol-2-yl)cyclohexyl]-2-(4-oxothieno[3,2-c]pyridin-5(4H)-yl)acetamide HCl] gave an inhibition at 2 µM of 100%. Work on `O=C(Nc1cc(Cl)cc(Cl)c1)N[C@@H]1CCC[C@H](c2nc3ccccc3[nH]2)C1` [Example 227, 1-[(1R,3S)-3-(1H-benzimidazol-2-yl)cyclohexyl]-3-(3,5-dichlorophenyl) urea] yielded an inhibition at 2 µM of 115%. With `O=C1COc2ccc(C(=O)N[C@@H]3CCCC(c4nc5ccccc5[nH]4)C3)cc2N1` (stereo partly drawn) [Example 294, N-[(1R)-3-(1H-benzimidazol-2-yl)cyclohexyl]-3-oxo-3,4-dihydro-2H-1,4-benzoxazine-6-carboxamide (+)-tartrate] the inhibition at 2 µM was 62.5%. Work on `COc1ccc(NC(=O)N[C@@H]2CCC[C@H](c3nc4ccccc4[nH]3)C2)cc1` [Example 232, 1-[(1R,3S)-3-(1H-benzimidazol-2-yl)cyclohexyl]-3-(4-methoxyphenyl) urea] yielded an inhibition at 2 µM of 103%. `N#Cc1ccc(NC(=O)NC23CCCC(c4nc5cc(C(F)(F)F)ccc5[nH]4)(C2)C3)cc1` [Example 261, 1-(4-cyanophenyl)-3-{5-[5-(trifluoromethyl)-1H-benzimidazol-2-yl]bicyclo[3.1.1]hept-1-yl}urea] was tested, and the inhibition at 2 µM was 78.8%. `O=C(CN1CCCCCC1=O)NC1CCCC(c2nc3ccccc3[nH]2)C1` (stereo not shown) [Example 112, N-[3-(1H-benzimidazol-2-yl)cyclohexyl]-2-(2-oxoazepan-1-yl)acetamide triflouroacetate] showed an inhibition at 2 µM of 93%. `Cn1ccnc1-c1ccc(C(=O)NC2CCCC(c3nc4ccccc4[nH]3)C2)cc1` (stereo not shown) [Example 159, N-[3-(1H-benzimidazol-2-yl)cyclohexyl]-4-(1-methyl-1H-imidazol-2-yl)benzamide triflouroacetate] was tested, and the inhibition at 2 µM was 78%.
